Data taken from PubChem BioAssay (NCI).
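Step 1: Grow cells in 96-well plates. Step 2: Expose to compound for 48 hours at 5 concentrations. Step 3: Interpolate endpoints linearly; if unreached, use highest concentration. The concentration for 50% growth inhibition is given as GI50. Definition used: TGI = concentration required for complete inhibition of growth.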

Experiments:
Experiment in all cases: NCI anticancer screen, dose series, 48 h
[1] = test system: EKVX NSCLC
[2] = test system: HCC-2998 colon
[3] = test system: NCI-H522 lung
[4] = test system: RXF 393 renal
[5] = test system: SK-MEL-2 melanoma
[6] = test system: SK-MEL-5 melanoma
[7] = test system: SNB-19 CNS
[8] = test system: T-47D breast
[9] = test system: UACC-257 melanoma
[10] = test system: UACC-62 melanoma

Structure (SMILES): CN1CCN([C@H]2C[C@H]3[C@@H]4CC=C5C[C@@H](O)CC[C@]5(C)[C@H]4CC[C@]3(C)[C@H]2O)CC1
- TGI [1]: > 100 µM
- TGI [2]: > 100 µM
- TGI [3]: > 100 µM
- TGI [4]: 51.9 µM
- TGI [5]: > 100 µM
- TGI [6]: > 54.7 µM
- TGI [7]: > 62 µM
- TGI [8]: > 77.8 µM
- TGI [9]: > 69.3 µM
- TGI [10]: > 60.5 µM

Structure (SMILES): O=S(=O)(O)c1cc(S(=O)(=O)O)c2c(N=Nc3ccc(N=Nc4ccccc4)cc3)c(O)ccc2c1
- TGI [1]: > 100 µM
- TGI [2]: > 100 µM
- TGI [3]: > 100 µM
- TGI [4]: > 100 µM
- TGI [5]: > 100 µM
- TGI [6]: > 100 µM
- TGI [7]: > 100 µM
- TGI [8]: > 100 µM
- TGI [9]: > 100 µM
- TGI [10]: > 100 µM

Structure (SMILES): CCn1c2ccccc2c2cc(Nc3cc(C)[nH]c(=O)n3)ccc21
- TGI [1]: > 100 µM
- TGI [2]: > 100 µM
- TGI [3]: > 100 µM
- TGI [4]: > 100 µM
- TGI [5]: > 100 µM
- TGI [7]: > 100 µM
- TGI [8]: > 100 µM
- TGI [9]: > 100 µM
- TGI [10]: > 100 µM

Structure (SMILES): O=C1C(c2c(O)[nH]c3ccc(S(=O)(=O)NCCO)cc23)=Nc2ccccc21
- TGI [1]: > 100 µM
- TGI [2]: > 100 µM
- TGI [3]: 4.73 µM
- TGI [4]: 18.9 µM
- TGI [5]: 17.9 µM
- TGI [6]: > 100 µM
- TGI [7]: > 100 µM
- TGI [8]: 50.4 µM
- TGI [9]: > 100 µM
- TGI [10]: > 100 µM

Structure (SMILES): O=P(O)(O)CN1CCNCCN(CP(=O)(O)O)CC1
- TGI [1]: > 100 µM
- TGI [2]: > 100 µM
- TGI [3]: > 100 µM
- TGI [4]: > 100 µM
- TGI [5]: > 100 µM
- TGI [6]: 71.8 µM
- TGI [7]: > 100 µM
- TGI [8]: > 100 µM
- TGI [9]: > 100 µM
- TGI [10]: > 100 µM

Structure (SMILES): O=[N+]([O-])C(C=C(n1nnc2ccccc21)n1nnc2ccccc21)=C(n1nnc2ccccc21)n1nnc2ccccc21
- TGI [1]: > 100 µM
- TGI [2]: > 100 µM
- TGI [4]: > 100 µM
- TGI [7]: > 100 µM
- TGI [8]: > 100 µM
- TGI [10]: > 100 µM

Structure (SMILES): CC(=O)c1sc2[n+](c1C)C(=O)/C(=C\c1ccccc1Cl)S2
- TGI [1]: 80.7 µM
- TGI [2]: 37.6 µM
- TGI [3]: 39 µM
- TGI [4]: 47.4 µM
- TGI [5]: 55.8 µM
- TGI [6]: 23.4 µM
- TGI [7]: 47.6 µM
- TGI [8]: 36.2 µM
- TGI [9]: 42.3 µM
- TGI [10]: 25.8 µM

Structure (SMILES): C=CCNC(=S)/N=C/C(C(=O)Nc1ccccc1C)=C(\C)O
- TGI [1]: > 100 µM
- TGI [2]: > 100 µM
- TGI [3]: > 100 µM
- TGI [4]: > 100 µM
- TGI [5]: > 100 µM
- TGI [6]: > 100 µM
- TGI [7]: > 100 µM
- TGI [8]: > 100 µM
- TGI [9]: > 100 µM
- TGI [10]: > 100 µM

Structure (SMILES): CN1CCC2(CC1)C(=NC1CCCCC1)NC(=O)N2c1ccccc1
- TGI [1]: > 100 µM
- TGI [2]: > 100 µM
- TGI [4]: > 100 µM
- TGI [6]: > 100 µM
- TGI [7]: > 100 µM
- TGI [8]: > 100 µM
- TGI [9]: > 100 µM
- TGI [10]: > 100 µM

Structure (SMILES): O=C1C=C(N2CCN(CCOCCO)CC2)C(=O)c2c(O)ccc(O)c21
- TGI [1]: 33.9 µM
- TGI [2]: 6.95 µM
- TGI [3]: 5.75 µM
- TGI [4]: 28.8 µM
- TGI [5]: 18.5 µM
- TGI [6]: 3.12 µM
- TGI [7]: 33.7 µM
- TGI [8]: 18.4 µM
- TGI [9]: 3.11 µM
- TGI [10]: 4.1 µM

Structure (SMILES): COc1ccc(CNc2nc3ccccc3nc2C(=O)O)cc1
- TGI [1]: > 100 µM
- TGI [2]: > 100 µM
- TGI [3]: > 100 µM
- TGI [4]: > 100 µM
- TGI [5]: > 100 µM
- TGI [6]: > 100 µM
- TGI [7]: > 100 µM
- TGI [8]: > 100 µM
- TGI [9]: > 100 µM
- TGI [10]: > 100 µM

Structure (SMILES): C=C1C(=O)OC2C3OC(C)(CCC(O)C3COC(C)=O)CC(OC(=O)/C(=C/C)COC(C)=O)C12 (configuration not stated)
- TGI [1]: 1.61 µM
- TGI [2]: 2.59 µM
- TGI [3]: 0.0749 µM
- TGI [4]: 0.515 µM
- TGI [5]: 6.96 µM
- TGI [6]: 2.65 µM
- TGI [7]: 18.3 µM
- TGI [8]: 0.424 µM
- TGI [9]: 1.96 µM
- TGI [10]: 0.971 µM

Structure (SMILES): COc1ccc(-c2n/c(=C\c3c(O)[nH]c4ccccc34)cc3c2=Nc2ccccc2-3)cc1
- GI50 [1]: 3.44 µM
- TGI [1]: 52 µM
- GI50 [2]: 1.52 µM
- TGI [2]: 3.07 µM
- GI50 [3]: 1.06 µM
- TGI [3]: 2.3 µM
- GI50 [4]: 1.26 µM
- TGI [4]: 2.67 µM
- GI50 [5]: 0.795 µM
- TGI [5]: 2.35 µM
- GI50 [6]: 1.36 µM
- TGI [6]: 2.64 µM
- GI50 [7]: 1.63 µM
- TGI [7]: 3.79 µM
- GI50 [8]: 2.22 µM
- TGI [8]: 9.43 µM
- GI50 [9]: 2.19 µM
- TGI [9]: 6.97 µM
- GI50 [10]: 1.31 µM
- TGI [10]: 2.58 µM

Structure (SMILES): CCNC(=S)N/N=C(\C)c1cccc(C)n1
- TGI [1]: > 100 µM
- TGI [2]: 28.9 µM
- TGI [3]: 26 µM
- TGI [4]: > 100 µM
- TGI [5]: > 100 µM
- TGI [6]: 23.8 µM
- TGI [7]: > 100 µM
- TGI [8]: > 100 µM
- TGI [9]: > 100 µM
- TGI [10]: 41.3 µM

Structure (SMILES): O=S(=O)(O)c1ccc2c(N=Nc3ccc(Sc4ccc(N=Nc5c(O)ccc6cc(S(=O)(=O)O)ccc56)cc4)cc3)c(O)ccc2c1
- TGI [1]: > 100 µM
- TGI [2]: > 100 µM
- TGI [3]: > 100 µM
- TGI [4]: > 100 µM
- TGI [5]: > 100 µM
- TGI [6]: > 100 µM
- TGI [7]: > 100 µM
- TGI [8]: > 100 µM
- TGI [9]: > 100 µM
- TGI [10]: > 100 µM

Structure (SMILES): O=C(Nc1ccc2ccccc2c1)c1cc2cc(CCl)ccc2oc1=O
- TGI [1]: > 100 µM
- TGI [2]: > 100 µM
- TGI [3]: > 100 µM
- TGI [4]: 54.1 µM
- TGI [5]: 63.3 µM
- TGI [6]: > 100 µM
- TGI [7]: > 100 µM
- TGI [8]: > 100 µM
- TGI [9]: > 100 µM
- TGI [10]: > 100 µM

Structure (SMILES): O=c1cc(N2CCCC2)[nH]c(=O)n1-c1ccc(Cl)cc1
- TGI [1]: > 100 µM
- TGI [2]: > 100 µM
- TGI [3]: > 100 µM
- TGI [4]: > 100 µM
- TGI [5]: > 100 µM
- TGI [7]: > 100 µM
- TGI [8]: > 100 µM
- TGI [9]: > 100 µM
- TGI [10]: > 100 µM

Structure (SMILES): CC(C)C(NC(=O)C(Cc1ccccc1)NC(=O)[C@H]1CCC[C@H]1NC(=O)C(Cc1ccc(OC(C)(C)C)cc1)NC(=O)OC(C)(C)C)C(N)=O (some centres not stated)
- TGI [1]: > 100 µM
- TGI [2]: 30.5 µM
- TGI [3]: 30.7 µM
- TGI [4]: > 100 µM
- TGI [5]: 41.6 µM
- TGI [6]: 21.5 µM
- TGI [8]: 46.9 µM
- TGI [10]: 40.5 µM

Structure (SMILES): COCCN1C(=O)C2c3[nH]c4ccccc4c3C3CCC(C(C)(C)C)CC3C2C1=O (configuration not stated)
- TGI [1]: 38.2 µM
- TGI [2]: 42.9 µM
- TGI [3]: 35.7 µM
- TGI [4]: 43.1 µM
- TGI [6]: 30.9 µM
- TGI [7]: 44.6 µM
- TGI [8]: 38.5 µM
- TGI [9]: 31.8 µM
- TGI [10]: > 10 µM

Structure (SMILES): O=C(Nc1ccc(Cl)cc1)c1cc(S(=O)(=O)Nc2n[nH]c(=O)n2-c2ccccc2)c(S)cc1Cl
- TGI [1]: > 100 µM
- TGI [2]: > 100 µM
- TGI [4]: > 100 µM
- TGI [5]: > 100 µM
- TGI [6]: > 100 µM
- TGI [7]: > 100 µM
- TGI [8]: > 100 µM
- TGI [9]: > 100 µM
- TGI [10]: > 100 µM

Structure (SMILES): CCCCCCCCCCCCOP(=O)(O)OP(=O)(O)OCC1OC(n2cc(C)c(=O)[nH]c2=O)CC1O (configuration not stated)
- TGI [1]: > 100 µM
- TGI [2]: > 100 µM
- TGI [3]: > 100 µM
- TGI [4]: > 100 µM
- TGI [5]: > 100 µM
- TGI [6]: > 100 µM
- TGI [7]: > 100 µM
- TGI [8]: > 100 µM
- TGI [9]: > 100 µM
